Drawing on the NIST ThermoML archive (doi:10.1021/je2007378), this text covers molar volume and excess molar enthalpy for 13 compounds.

± gives the expanded uncertainty stated by the source.

For data set [1] the following is noted: 298.15 K; 101.33 kPa; Liquid; Vibrating tube method.
The nature of data set [2]: excess molar enthalpy (molar enthalpy of mixing); xn = mol fraction of the nth substance listed. The conditions noted are these: 298.15 K, 101 kPa, Liquid, Calvet calorimetry.

For `C[Si]1(C)O[Si](C)(C)O[Si](C)(C)O[Si](C)(C)O[Si](C)(C)O1` [decamethylcyclopentasiloxane], the molar volume in data set [1] came to 0.0003889 ± 9.1e-07 m3/mol.

As to `C[Si]1(C)O[Si](C)(C)O[Si](C)(C)O[Si](C)(C)O[Si](C)(C)O1` [decamethylcyclopentasiloxane] + CCCCCCC, in data set [2] (x2 = 0.5), the excess molar enthalpy amounted to 0.239 ± 0.239 kcal/mol.

Turning to `C[Si](C)(C)O[Si](C)(C)O[Si](C)(C)O[Si](C)(C)C` [decamethyltetrasiloxane], the molar volume in data set [1] turned out to be 0.0003662 ± 7.9e-07 m3/mol.

As for `C[Si](C)(C)O[Si](C)(C)O[Si](C)(C)O[Si](C)(C)C` [decamethyltetrasiloxane] + CCCCCCC, the excess molar enthalpy in data set [2] (x1 = 0.5) was 0.239 ± 0.239 kcal/mol.

With `C[Si](C)(C)O[Si](C)(C)O[Si](C)(C)O[Si](C)(C)O[Si](C)(C)C` [dodecamethylpentasiloxane], the molar volume in data set [1] was 0.0004424 ± 9.7e-07 m3/mol.

As to `C[Si](C)(C)O[Si](C)(C)O[Si](C)(C)O[Si](C)(C)O[Si](C)(C)C` [dodecamethylpentasiloxane] + CCCCCCC, the excess molar enthalpy in data set [2] (x1 = 0.5) stood at 0.239 ± 0.239 kcal/mol.

On to `CCCCCCC` [heptane], for which the molar volume in data set [1] was determined as 0.0001474 ± 5e-08 m3/mol.

For `C[Si](C)(C)O[Si](C)(C)C` [hexamethyldisiloxane], the molar volume in data set [1] turned out to be 0.000214 ± 6e-08 m3/mol.

On to `C[Si](C)(C)O[Si](C)(C)C` [hexamethyldisiloxane] + CCCCCCC, for which, in data set [2] (x1 = 0.5), the excess molar enthalpy is 1.2 ± 0.239 kcal/mol.

As for `C[Si]1(C)O[Si](C)(C)O[Si](C)(C)O[Si](C)(C)O1` [octamethylcyclotetrasiloxane], the molar volume in data set [1] was determined as 0.0003121 ± 1e-07 m3/mol.

Turning to `C[Si]1(C)O[Si](C)(C)O[Si](C)(C)O[Si](C)(C)O1` [octamethylcyclotetrasiloxane] + CCCCCCC, the excess molar enthalpy in data set [2] (x2 = 0.5) is 0.239 ± 0.239 kcal/mol.

In the case of `C[Si](C)(C)O[Si](C)(C)O[Si](C)(C)C` [octamethyltrisiloxane], the molar volume in data set [1] is 0.0002903 ± 3e-07 m3/mol.

With `C[Si](C)(C)O[Si](C)(C)O[Si](C)(C)C` [octamethyltrisiloxane] + CCCCCCC, in data set [2] (x1 = 0.5), the excess molar enthalpy stood at 0.239 ± 0.239 kcal/mol.
